Laboratory results published in PubChem BioAssay (NCI).
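These data come from cells grown in 96-well plates and exposed to compound for 48 hours at five concentrations. TGI: concentration producing complete growth inhibition.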

What was measured:
Assay in all cases: NCI-60 cell line screen, 48 h
HOP-92 NSCLC = system: HOP-92 NSCLC
SNB-75 CNS = system: SNB-75 CNS
MDA-MB-231 breast = system: MDA-MB-231 breast
OVCAR-8 ovarian = system: OVCAR-8 ovarian
SF-268 CNS = system: SF-268 CNS
COLO 205 colon = system: COLO 205 colon
RPMI-8226 leukemia = system: RPMI-8226 leukemia
NCI-H226 lung = system: NCI-H226 lung
NCI/ADR-RES ovarian = system: NCI/ADR-RES ovarian
ACHN renal = system: ACHN renal

SMILES | TGI (HOP-92 NSCLC) [µM] | TGI (SNB-75 CNS) [µM] | TGI (MDA-MB-231 breast) [µM] | TGI (OVCAR-8 ovarian) [µM] | TGI (SF-268 CNS) [µM] | TGI (COLO 205 colon) [µM] | TGI (RPMI-8226 leukemia) [µM] | TGI (NCI-H226 lung) [µM] | TGI (NCI/ADR-RES ovarian) [µM] | TGI (ACHN renal) [µM]
O=C1C=C/C(=N\N=C(c2ccccc2)c2ccccc2)O1 | > 10 | > 10 | > 10 | > 10 | > 10 | > 10 | > 10 |  |  | 
COc1cc(OC)cc(C(=O)CC(=O)c2cc(OC)cc(OC)c2)c1 | > 100 | > 100 |  | > 100 | > 100 | > 100 | > 100 | > 100 | > 100 | > 100
CC(=O)NC1C(OCc2ccccc2)OC(CO)C(O)C1OCC(=O)N[C@@H](C)C(=O)N[C@H](CCC(=O)NCCCNc1c2ccccc2nc2cccc([N+](=O)[O-])c12)C(N)=O (stereo not given in full) |  | 0.362 | 0.45 | 1.71 |  | 0.0185 | 0.242 | 0.287 |  | 0.115
COc1ccc(C2OC(c3ccncc3)=NN2C)cc1F (stereo not given) | > 100 |  | > 100 | > 100 | > 100 | > 100 | > 100 | > 100 | > 100 | > 100
COc1ccc(C(=O)/C=C/c2ccc(OCCCOc3ccc(/C=C/C(=O)c4ccc(OC)cc4)cc3)cc2)cc1 |  | > 100 | > 100 | > 100 | > 100 | > 100 | > 100 | > 100 | > 100 | > 100
O=C(O)CN1CCN2CCCCCN(CC1)CCN(CC(=O)O)CC2 | > 100 | 95.3 | > 100 | > 100 |  | > 100 | > 100 | > 100 | > 100 | > 100
